According to PubChem BioAssay (NCI):
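A five-concentration, 48-hour dose response in 96-well plates underlies each endpoint, interpolated linearly between surrounding concentrations. TGI marks complete inhibition of growth.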

How the values were obtained:
Experiment in all cases: NCI anticancer screen, dose series, 48 h
ACHN renal = system: ACHN renal
UO-31 renal = system: UO-31 renal
DU-145 prostate = system: DU-145 prostate
NCI/ADR-RES ovarian = system: NCI/ADR-RES ovarian
MCF7 breast = system: MCF7 breast
SK-MEL-2 melanoma = system: SK-MEL-2 melanoma
EKVX NSCLC = system: EKVX NSCLC
SNB-19 CNS = system: SNB-19 CNS
MDA-MB-231 breast = system: MDA-MB-231 breast
LOX IMVI melanoma = system: LOX IMVI melanoma
OVCAR-3 ovarian = system: OVCAR-3 ovarian
CAKI-1 renal = system: CAKI-1 renal
NCI-H522 lung = system: NCI-H522 lung
SF-268 CNS = system: SF-268 CNS
OVCAR-4 ovarian = system: OVCAR-4 ovarian
SN12C renal = system: SN12C renal
HCT-15 colon = system: HCT-15 colon
BT-549 breast = system: BT-549 breast
SK-MEL-5 melanoma = system: SK-MEL-5 melanoma
MDA-MB-435 = system: MDA-MB-435
RXF 393 renal = system: RXF 393 renal
NCI-H23 lung = system: NCI-H23 lung
NCI-H226 lung = system: NCI-H226 lung
OVCAR-5 ovarian = system: OVCAR-5 ovarian
SF-295 CNS = system: SF-295 CNS
IGROV1 ovarian = system: IGROV1 ovarian
TK-10 renal = system: TK-10 renal
A498 renal = system: A498 renal
HCC-2998 colon = system: HCC-2998 colon
SW-620 colon = system: SW-620 colon
M14 melanoma = system: M14 melanoma
COLO 205 colon = system: COLO 205 colon
SK-OV-3 ovarian = system: SK-OV-3 ovarian
T-47D breast = system: T-47D breast
HOP-62 NSCLC = system: HOP-62 NSCLC
NCI-H460 lung = system: NCI-H460 lung
UACC-257 melanoma = system: UACC-257 melanoma
K-562 leukemia = system: K-562 leukemia
PC-3 prostate = system: PC-3 prostate
MDA-N = system: MDA-N
RPMI-8226 leukemia = system: RPMI-8226 leukemia
UACC-62 melanoma = system: UACC-62 melanoma
U251 CNS = system: U251 CNS
CCRF-CEM leukemia = system: CCRF-CEM leukemia
HT29 colon = system: HT29 colon
SK-MEL-28 melanoma = system: SK-MEL-28 melanoma
HCT-116 colon = system: HCT-116 colon
HL-60(TB) leukemia = system: HL-60(TB) leukemia
SNB-75 CNS = system: SNB-75 CNS
KM12 colon = system: KM12 colon
SR leukemia = system: SR leukemia
MALME-3M melanoma = system: MALME-3M melanoma
HOP-92 NSCLC = system: HOP-92 NSCLC
OVCAR-8 ovarian = system: OVCAR-8 ovarian
HS 578T breast = system: HS 578T breast
786-0 renal = system: 786-0 renal

Measured: TGI

C[N+](C)(C)c1ccc(C(N)C(=O)O)cc1 (stereo unspecified)
> 100 µM: all assays above
